From ChEMBL document CHEMBL3390845, “Development of second generation amidinohydrazones, thio- and semicarbazones as Trypanosoma cruzi-inhibitors bearing benzofuroxan and benzimidazole 1,3-dioxide core scaffolds” (Medchemcomm, 2010)

Assays:
Trypanosoma cruzi = assay: Antitrypanosomal activity against epimastigotes of Trypanosoma cruzi Tulahuen 2 assessed as parasite growth inhibition after 5 days; assay type: functional; conditions: Tulahuen 2, 120 h, read-out: ID50 (the source's name)
[1] = Hemolytic activity in human RBC assessed as hemoglobin release after 24 hrs by spectrophotometry; assay type: ADME, cell-based, Erythrocyte; conditions: for HC50 at 24 h: human red blood cells (RBC), read-out: ID50; for ID50: erythrocyte, 24 h
[2] = target: Cruzipain (Trypanosoma cruzi) (UniProt P25779); assay: Inhibition of Trypanosoma cruzi Cruzipain using Z-Phe-Arg-AMC as substrate measured for 10 mins by spectrofluorimetric analysis relative to control
Chain of Cruzipain (Trypanosoma cruzi) (P25779 123-467 limits assumed): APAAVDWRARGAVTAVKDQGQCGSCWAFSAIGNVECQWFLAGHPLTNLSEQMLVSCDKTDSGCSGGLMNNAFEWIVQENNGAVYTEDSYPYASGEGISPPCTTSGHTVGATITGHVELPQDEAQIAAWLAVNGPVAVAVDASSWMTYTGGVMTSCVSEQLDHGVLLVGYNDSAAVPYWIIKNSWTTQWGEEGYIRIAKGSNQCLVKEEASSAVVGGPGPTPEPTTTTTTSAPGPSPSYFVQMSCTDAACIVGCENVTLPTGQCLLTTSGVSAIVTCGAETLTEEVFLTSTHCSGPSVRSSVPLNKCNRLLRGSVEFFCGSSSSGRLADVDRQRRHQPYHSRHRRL

[3] = target: Cruzipain (Trypanosoma cruzi) (UniProt P25779); assay: Inhibition of Trypanosoma cruzi Cruzipain using Z-Phe-Arg-AMC as substrate at 100 uM at pH 7.3 measured for 10 mins by spectrofluorimetric analysis relative to control
[4] = Cytotoxicity in mouse J774 cells assessed as cell viability after 48 hrs by MTT assay; assay type: cell-based; conditions: read-out: ID50
[5] = Selectivity index, ratio of ID50 for mouse J774 cells to ID50 for epimastigotes of Trypanosoma cruzi Tulahuen 2; assay type: toxicity, cell-based; conditions: read-out: Selectivity Index
[6] = Selectivity index, ratio of ID50 for human RBC to ID50 for epimastigotes of Trypanosoma cruzi Tulahuen 2
[7] = target: Cruzipain (Trypanosoma cruzi) (UniProt P25779); assay: Inhibition of Trypanosoma cruzi Cruzipain using Z-Phe-Arg-AMC as substrate at 100 uM at pH 5.3 measured for 10 mins by spectrofluorimetric analysis relative to control
[8] = target: Cruzipain (Trypanosoma cruzi) (UniProt P25779); assay: Inhibition of Trypanosoma cruzi Cruzipain using Z-Phe-Arg-AMC as substrate at 100 uM at pH 7.3 measured for 10 mins by spectrofluorimetric analysis relative to control in presence of Triton X-100

IC50 (Trypanosoma cruzi) [µM]	ID50 [2] [µM]	inhibition [3] [%]	inhibition [7] [%]	inhibition [8] [%]	SMILES	HC50 at 24 h [1] [µM]	CC50 at 48 h [4] [µM]	selectivity ratio [5]	Selectivity Index [6]	ID50 [1]
23	> 100	11			C=CCNC(=S)N/N=C\c1ccccc1OCc1ccc2no[n+]([O-])c2c1	139	138			
> 25	> 100	0			CC(=O)c1ccccc1OCc1ccc2c(c1)=[N+]([O-])C(C)(C)[N+]=2[O-]	< 50				
17	> 100	35.5			CC1(C)[N+]([O-])=c2ccc(COc3ccc(C=O)cc3)cc2=[N+]1[O-]	65	< 100			
	43				NC(=S)N/N=C/c1ccc(OCc2ccc3no[n+]([O-])c3c2)cc1	> 200		26.7	> 13.3	
> 25	68				[O-][n+]1onc2ccc(/C=N/N=C/c3ccccc3O)cc21					
> 25	100	42	28		N=C(N)N/N=C/c1cccc(OCc2ccc3no[n+]([O-])c3c2)c1	> 100				
13	55	100	79	90	C=CCNC(=S)N/N=C/c1cccc(OCc2ccc3no[n+]([O-])c3c2)c1					ND(Insoluble)
28	100	43			O=Cc1cccc(OCc2ccc3no[n+]([O-])c3c2)c1	50				
6.3	> 100	0			O=Cc1ccccc1OCc1ccc2no[n+]([O-])c2c1	> 100	78	12.4	> 15.9	
16.6	> 100	21			C/C(=N/NC(=N)N)c1ccccc1OCc1ccc2no[n+]([O-])c2c1	> 200				
24	64	95			CC1(C)[N+]([O-])=c2ccc(COc3cccc(/C=N/NC(N)=S)c3)cc2=[N+]1[O-]	141				
	> 100				NC(=O)N/N=C/c1ccc(OCc2ccc3no[n+]([O-])c3c2)cc1	> 200				
7	75	95			[O-][n+]1onc2ccc(COc3ccc(/C=N/NC(=S)Nc4ccccc4)cc3)cc21					ND(Insoluble)
25	73				[O-][n+]1onc2ccc(/C=N/N=C/c3cc(Br)ccc3O)cc21					
17	> 100	13.7			CC1(C)[N+]([O-])=c2ccc(COc3ccc(/C=N/NC(N)=S)cc3)cc2=[N+]1[O-]					ND(Insoluble)
					C[C@@H]1[C@H](O)[C@@H](C)/C=C/C=C/C=C/C=C/C=C/C=C/C=C/[C@H](O[C@@H]2O[C@H](C)[C@@H](O)[C@H](N)[C@@H]2O)C[C@@H]2O[C@](O)(C[C@@H](O)C[C@@H](O)[C@H](O)CC[C@@H](O)C[C@@H](O)CC(=O)O[C@H]1C)C[C@H](O)[C@H]2C(=O)O [AMPHOTERICIN B]	1.5			10	
4.7	> 100	0			CC1(C)[N+]([O-])=c2ccc(COc3ccccc3/C=N\NC(N)=O)cc2=[N+]1[O-]	50				
> 25	> 100	39			N=C(N)N/N=C\c1ccccc1OCc1ccc2no[n+]([O-])c2c1	58	< 100			
> 25	> 100	2.5			CC1(C)[N+]([O-])=c2ccc(COc3ccccc3/C=N\NC(=N)N)cc2=[N+]1[O-]	114				

IC50 (Trypanosoma cruzi) [µM]	ID50 [2] [µM]	inhibition [3] [%]	inhibition [7] [%]	inhibition [8] [%]	SMILES	HC50 at 24 h [1] [µM]	CC50 at 48 h [4] [µM]	selectivity ratio [5]	Selectivity Index [6]	ID50 [1]
14	> 100	35			CC1(C)[N+]([O-])=c2ccc(COc3ccccc3/C=N\NC(N)=S)cc2=[N+]1[O-]	> 200				
15	78	80			NC(=S)N/N=C/c1cccc(OCc2ccc3no[n+]([O-])c3c2)c1					ND(Insoluble)
2.7	> 100	6.6			C=CCNC(=S)N/N=C\c1ccccc1OCc1ccc2c(c1)=[N+]([O-])C(C)(C)[N+]=2[O-]					ND(Insoluble)
7.7	> 100	0			CC1(C)[N+]([O-])=c2ccc(COc3ccccc3/C=N\NC(=S)Nc3ccccc3)cc2=[N+]1[O-]	66	< 100			
					CC1CS(=O)(=O)CCN1/N=C/c1ccc([N+](=O)[O-])o1 (stereo not given) [NIFURTIMOX]	> 100			13	
> 25	85	72			CC1(C)[N+]([O-])=c2ccc(COc3ccc(/C=N/NC(=S)Nc4ccccc4)cc3)cc2=[N+]1[O-]	< 50				
	32				N=C(N)N/N=C/c1ccc(OCc2ccc3no[n+]([O-])c3c2)cc1	> 200				
3.6	> 100	0			[O-][n+]1onc2ccc(COc3ccccc3/C=N\NC(=S)Nc3ccccc3)cc21	> 200	> 400	> 111	> 55.6	
> 25	100	45			CC1(C)[N+]([O-])=c2ccc(COc3cccc(C=O)c3)cc2=[N+]1[O-]	< 50				
> 25	> 100	38			C=CCNC(=S)N/N=C/c1ccc(OCc2ccc3no[n+]([O-])c3c2)cc1					ND(Insoluble)
	> 100	6.3			O=Cc1ccc(OCc2ccc3no[n+]([O-])c3c2)cc1	< 50				
> 25	> 100	7			NC(=O)N/N=C\c1ccccc1OCc1ccc2no[n+]([O-])c2c1	> 100	< 100			
7	> 100	12			CC(=O)c1ccccc1OCc1ccc2no[n+]([O-])c2c1	> 200				
> 25	> 100	0			CC1(C)[N+]([O-])=c2ccc(COc3ccc(/C=N/NC(N)=O)cc3)cc2=[N+]1[O-]	> 200				
> 25	100	49			NC(=S)N/N=C\c1ccccc1OCc1ccc2no[n+]([O-])c2c1	189	< 100			
7.2					C=CCNC(=S)N/N=C/c1ccc2c(c1)=[N+]([O-])C(C)(C)[N+]=2[O-]					
23	100	51			C=CCNC(=S)N/N=C/c1ccc(OCc2ccc3c(c2)=[N+]([O-])C(C)(C)[N+]=3[O-])cc1	> 100				
8.3	78				[O-][n+]1onc2ccc(/C=N/NC(=S)Nc3ccccc3)cc21					
